These compounds were tested against Aldose reductase (Oryctolagus cuniculus) (assay: In vitro inhibition of rabbit lens aldose reductase.).

Structure (SMILES) | IC50 [nM]
O=C1Cc2ccc3c(c2O1)CCc1ccccc1C3=O [11,12-Dihydro-3H-1-oxa-benzo[4,5]cyclohepta[1,2-e]indene-2,6-dione] | 770
O=C(O)Cc1ccc2c(c1)OCc1ccccc1C2=O [Oxepinac] | 330
CC(C(=O)O)c1cc(O)c2c(c1)CCc1ccccc1C2=O (stereo not given) [2-(4-Hydroxy-5-oxo-10,11-dihydro-5H-dibenzo[a,d]cyclohepten-2-yl)-propionic acid] | 210
O=C(O)Cc1cc(O)c2c(c1)CCc1ccccc1C2=O [(4-Hydroxy-5-oxo-10,11-dihydro-5H-dibenzo[a,d]cyclohepten-2-yl)-acetic acid] | 110000
O=C(O)Cc1cc(O)c2c(=O)c3ccccc3ccc2c1 [(4-Hydroxy-5-oxo-5H-dibenzo[a,d]cyclohepten-2-yl)-acetic acid] | 760
CC(C(=O)O)c1cc(O)c2c(=O)c3ccccc3ccc2c1 (stereo not given) [2-(4-Hydroxy-5-oxo-5H-dibenzo[a,d]cyclohepten-2-yl)-propionic acid] | 2700

More lines, in order of falling IC50, values ahead:

IC50 [nM] | Structure (SMILES)
280000 | O=C(O)Cc1ccc2c(c1)CCc1cccc(O)c1C2=O [(6-Hydroxy-5-oxo-10,11-dihydro-5H-dibenzo[a,d]cyclohepten-2-yl)-acetic acid]
160000 | O=C(O)Cc1ccc2c(c1)CCc1ccccc1C2=O [(5-Oxo-10,11-dihydro-5H-dibenzo[a,d]cyclohepten-2-yl)-acetic acid]
1000 | O=C(O)Cc1ccc2c(=O)c3ccccc3ccc2c1 [(5-Oxo-5H-dibenzo[a,d]cyclohepten-2-yl)-acetic acid]
830 | O=C(O)Cc1ccc2c(c1)CCc1ccc(O)cc1C2=O [(7-Hydroxy-5-oxo-10,11-dihydro-5H-dibenzo[a,d]cyclohepten-2-yl)-acetic acid]

From BindingDB's records for doi:10.1021/jm00161a033 (1986)
